The target of data set [1] is T1, recombinant human 5HT6 receptor (Homo sapiens, UniProt P50406).
T1 construct: purchased Receptor Biology; host or cells: HEK-293
The experiment in a line: Binding to the 5HT6 serotonin receptor ([3H]-LSD, HEK-293 cell membranes). Conditions: for inhibition at 1 µM: read-out: % Inhibition 10^−6 M. As to the method:
Binding to the 5HT6 Serotonin Receptor
The respective part of the literature descriptions is incorporated here by reference and form part of the disclosure. […] The assays are carried out in triplicate.

Like-named read-outs stand apart in the source and are kept apart here.

From US20070009597A1, “Active substance combination comprising a compound with npy receptor affinity and a compound with 5-ht6 receptor affinity” (LABORATORIOS DEL DR. ESTEVE S.A., priority 2003, published 2007) come the findings set out here.

T1 sequence (P50406 whole entry): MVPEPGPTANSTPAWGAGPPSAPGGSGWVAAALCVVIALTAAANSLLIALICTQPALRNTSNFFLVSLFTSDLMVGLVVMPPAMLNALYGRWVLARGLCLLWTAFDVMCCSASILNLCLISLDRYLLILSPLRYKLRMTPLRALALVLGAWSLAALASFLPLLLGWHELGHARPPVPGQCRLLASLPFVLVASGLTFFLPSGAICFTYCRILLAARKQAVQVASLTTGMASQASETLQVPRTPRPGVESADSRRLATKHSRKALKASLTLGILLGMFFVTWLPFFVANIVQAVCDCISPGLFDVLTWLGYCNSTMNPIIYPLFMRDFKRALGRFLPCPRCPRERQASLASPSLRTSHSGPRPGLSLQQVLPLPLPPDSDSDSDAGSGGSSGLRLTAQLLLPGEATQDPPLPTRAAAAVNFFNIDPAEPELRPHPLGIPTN

Consider `O=C(CN1CCC(Nc2ccccc2CO)CC1)Nc1ccc2c(c1)CCC2=O`, for which the melting point (in general, the temperature of the solid-liquid transition) was 138 to 140 °C.
In turn, `CN(C)CCn1ccc2cc(NS(=O)(=O)c3cccc4nsnc34)ccc21` [Example 10e, N-[1-(2-dimethylaminoethyl)-1H-indole-5-yl]-benzo[1,2,5]thiadiazole-4-sulfonamide] came in with a melting point of 166 to 168 °C.
As to `CN(C)CCn1ccc2ccc(NS(=O)(=O)c3cc(Cl)cc(Cl)c3)cc21` [Example 8f, N-[1-(2-Dimethylaminoethyl)-1H-indol-6-yl]-3,5-dichlorobenzenesulfonamide], the inhibition (commonly the relative decrease from the control value, in per cent) at 1 µM in data set [1] (10^−6 M, table 1f, compounds of general formula (If)) turned out to be 86.9%. Also, in data set [1] (table 1f, compounds of general formula (If)), the inhibition constant (Ki) – broadly, the equilibrium dissociation constant of an inhibitor or competing ligand from its target – was found to be 159 nM.
For the molecule `O=C1OCc2ccccc2N1C1CCN(S(=O)(=O)c2cccc3ccccc23)CC1` [Example 1b, 1-[1-(Naphthyl-1-sulfonyl)-piperidine-4-yl]-1,4-dihydro-benzo[d][1,3]oxazine-2-one], in data set [1], the Ki came out at 51.7 nM and the inhibition at 1 µM is 98.1 ± 4%.
